Data reported in patent US6448052B2, “Carbonyl reductase enzyme and methods for its use” (Kaneka Corporation, priority 1997, dated 2002).

B1: CRD enzyme: carbonyl reductase purified from Candida magnoliae IFO 0705, amino acid sequence SEQ ID NO:1 (protein, listed as Candida magnoliae)
chain: MAKNFSNVEYPAPPPAHTKNESLQVLDLFKLNGKVASITGSSSGIGYALAEAFAQVGADVAIWYNSHDATGKAEALAKKYGVKVKAYKANVSSSDAVKQTIEQQIKDFGHLDIVVANAGIPWTKGAYIDQDDDKHFDQVVDVDLKGVGYVAKHAGRHFRERFEKEGKKGALVFTASMSGHIVNVPQFQATYNAAKAGVRHFAKSLAVEFAPFARVNSVSPGYINTEISDFVPQETQNKWWSLVPLGRGGETAELVGAYLFLASDAGSYATGTDIIVDGGYTLP

tested on: CRD enzyme; experiment: Substrate specificity of the purified CRD enzyme (decrease in NADPH absorption at 340 nm); assay type: biochemical, Candida magnoliae IFO 0705; conditions: NADPH as coenzyme
Experimental: First, the above yeast is cultured in an appropriate medium, and microbe bodies are collected from the resultant culture by centrifugation. The microbe bodies are destroyed by Dyno mill (manufactured by Dyno-Mill), for example, and centrifuged to remove cell debris and thus obtain a cell-free extract. The cell-free extract is then subjected to a processing, such as salting-out (e.g., ammonium sulfate precipitation and sodium phosphate precipitation), solvent precipitation (a protein fractionation precipitation method using acetone, ethanol, or the like), dialysis, gel filtration, ion exchange, column chromatography such as a reverse phase chromatography, and ultrafiltration, alone or in combination, to purify the enzyme. The CRD enzyme activity can be determined by measuring a reduction in the absorption at 340 nm at 30° C., for a 100 mM phosphate buffer (pH 6.5) with 1 mM ethyl 4-chloroacetoacetate as a substrate, 0.1 mM NADPH as a coenzyme, and the enzyme added thereto, or a 200 mM phosphate buffer (pH 7.0) with 0.2 mM ethyl 4-chloroacetoacetate as a substrate and 0.32 mM NADPH as a coenzyme added thereto. Under these reaction conditions, oxidation of 1 μmol NADPH into NADP in one minute is defined as one unit of enzymatic activity.
The enzyme activity was determined by, basically, allowing 3 ml of a reaction solution including 0.2 mM ethyl 4-chloroacetoacetate as a substrate, 0.32 mM NADPH as a coenzyme, and 0.1 ml of an enzyme solution in a 200 mM phosphate buffer (pH 7.0) to react at 30° C. for one minute and measuring a reduction in the absorption at 340 nm.
The enzyme according to the present invention was reacted using various carbonyl compounds shown in Table 1 below as a substrate under the same conditions as those used for ethyl 4-chloroacetoacetate.

Q: For `CCOC(=O)CC(C)=O` [Ethyl acetoacetate], which “substrate specificity (activity of the enzyme to the substrate, in words)” value is on record?
A: The value was “substantially no activity”.

Q: Which “substrate specificity (activity of the enzyme to the substrate, in words)” value does the source give for `CCOC(=O)CC(=O)CCl` [ethyl 4-chloroacetoacetate] here?
A: The value was “strong activity”.

same assay, conditions: Substrate 0.2 mM; 0.32 mM NADPH, 200 mM phosphate buffer pH 7.0, 30° C.; ethyl 4-chloroacetoacetate = 100

Q: With `O=Cc1ccccc1` [Benzaldehyde] as the molecule, how does the “Relative activity (%)” value read?
A: Its value is 0%.

Q: Which “Relative activity (%)” value does the source give for `CC12CCC(C(=O)C1=O)C2(C)C` (stereo not shown) [Camphor quinone] here?
A: Its value is 0%.

Q: For `O=CCCl` [Chloroacetoaldehyde], which “Relative activity (%)” value is on record?
A: Its value is 0%.

Q: With `CC(=O)C(C)=O` [Diacetyl] as the molecule, how does the “Relative activity (%)” value read?
A: The value was 19%.

Q: Which “Relative activity (%)” value does the source give for `CCOC(=O)CC(C)=O` [Ethyl acetoacetate] here?
A: The value was 0%.

Q: With `O=CC=O` [Glyoxal] as the molecule, how does the “Relative activity (%)” value read?
A: The value was 0%.

Q: Which “Relative activity (%)” value does the source give for `CC(=O)C=O` [Methyl glyoxal] here?
A: The value was 0%.

Q: With `O=Cc1cccnc1` [Nicotinaldehyde] as the molecule, how does the “Relative activity (%)” value read?
A: Its value is 0%.

Q: For `CCOC(=O)C(Cl)C(C)=O` (stereo not shown) [ethyl 2-chloroacetoacetate], which “Relative activity (%)” value is on record?
A: The value was 95%.

Q: For `CCOC(=O)CC(=O)CCl` [ethyl 4-chloroacetoacetate], which “Relative activity (%)” value is on record?
A: Its value is 100%.

Q: For `O=Cc1ccncc1` [isonicotinaldehyde], which “Relative activity (%)” value is on record?
A: The value was 0%.

Q: For `O=Cc1cccc(Cl)c1` [m-chlorobenzaldehyde], which “Relative activity (%)” value is on record?
A: Its value is 0%.

Q: For `O=Cc1cccc([N+](=O)[O-])c1` [m-nitrobenzaldehyde], which “Relative activity (%)” value is on record?
A: Its value is 0%.

Q: For `COC(=O)C(Cl)C(C)=O` (stereo not shown) [methyl 2-chloroacetoacetate], which “Relative activity (%)” value is on record?
A: The value was 11%.

Q: Which “Relative activity (%)” value does the source give for `COC(=O)CC(=O)CCl` [methyl 4-chloroacetoacetate] here?
A: The value was 11%.

Q: For `O=Cc1ccccc1Cl` [o-chlorobenzaldehyde], which “Relative activity (%)” value is on record?
A: The value was 0%.

Q: With `O=Cc1ccccc1[N+](=O)[O-]` [o-nitrobenzaldehyde] as the molecule, how does the “Relative activity (%)” value read?
A: Its value is 0%.

Q: For `CCCCCCCCOC(=O)CC(=O)CCl` [octyl 4-chloroacetoacetate], which “Relative activity (%)” value is on record?
A: The value was 36%.

Q: For `O=Cc1ccc(Cl)cc1` [p-chlorobenzaldehyde], which “Relative activity (%)” value is on record?
A: The value was 0%.

Q: With `O=Cc1ccc([N+](=O)[O-])cc1` [p-nitrobenzaldehyde] as the molecule, how does the “Relative activity (%)” value read?
A: Its value is 0%.

tested on: CRD enzyme; experiment: Effect of metal ions and inhibitors on CRD enzyme activity, ethyl 4-chloroacetoacetate as substrate; assay type: biochemical, Candida magnoliae IFO 0705; conditions: not given

Q: Which “Relative activity (%)” value does the source give for `[Cl-].[Cl-].[Co+2]` [CoCl2] here?
A: The value was 89%.

Q: Which “inhibitor (enzyme inhibited, in words)” value does the source give for `[Cl][Hg][Cl]` [HgCl2] here?
A: The value was “inhibited”.

Q: For `O=C(O)CI` [Iodoacetic acid], which “Relative activity (%)” value is on record?
A: The value was 100%.

Q: With `O=c1c(O)c(-c2ccc(O)c(O)c2)oc2cc(O)cc(O)c12` [Quercetin] as the molecule, how does the “inhibitor (enzyme inhibited, in words)” value read?
A: The value was “inhibited”.

same assay, conditions: Concentration of addition 0.01 mM; non-added = 100

Q: For `O=c1c(O)c(-c2ccc(O)c(O)c2)oc2cc(O)cc(O)c12` [Quercetin], which “Relative activity (%)” value is on record?
A: Its value is 84%.

same assay, conditions: Concentration of addition 0.05 mM; non-added = 100

Q: Which “Relative activity (%)” value does the source give for `O=C(O)c1cc(SSc2ccc([N+](=O)[O-])c(C(=O)O)c2)ccc1[N+](=O)[O-]` [DTNB] here?
A: Its value is 100%.

same assay, conditions: Concentration of addition 0.1 mM; non-added = 100

Q: With `O=[N+]([O-])c1ccc(O)c([N+](=O)[O-])c1` [2,4-dinitrophenol] as the molecule, how does the “Relative activity (%)” value read?
A: The value was 86%.

Q: For `O=c1oc2ccccc2c(O)c1Cc1c(O)c2ccccc2oc1=O` [Dicoumarol], which “Relative activity (%)” value is on record?
A: Its value is 97%.

Q: With `[Cl][Hg][Cl]` [HgCl2] as the molecule, how does the “Relative activity (%)” value read?
A: The value was 49%.

Q: With `O=c1c(O)c(-c2ccc(O)c(O)c2)oc2cc(O)cc(O)c12` [Quercetin] as the molecule, how does the “Relative activity (%)” value read?
A: Its value is 0%.

same assay, conditions: Concentration of addition 1 mM; non-added = 100

Q: For `[Cl][Cd][Cl]` [CdCl2], which “Relative activity (%)” value is on record?
A: The value was 91%.

Q: With `O=S(=O)([O-])[O-].[Cu+2]` [CuSO4] as the molecule, how does the “Relative activity (%)” value read?
A: Its value is 85%.

Q: With `O=C(O)CN(CCN(CC(=O)O)CC(=O)O)CC(=O)O` [EDTA] as the molecule, how does the “Relative activity (%)” value read?
A: Its value is 95%.

Q: For `[Cl-].[Cl-].[Mg+2]` [MgCl2], which “Relative activity (%)” value is on record?
A: Its value is 83%.

Q: For `CCN1C(=O)C=CC1=O` [NEM], which “Relative activity (%)” value is on record?
A: Its value is 105%.

Q: For `O=S(=O)(F)Cc1ccccc1` [PMSF], which “Relative activity (%)” value is on record?
A: The value was 93%.

Q: With `[Cl][Pb][Cl]` [PbCl2] as the molecule, how does the “Relative activity (%)” value read?
A: The value was 86%.

Q: For `NNc1ccccc1` [Phenylhydrazine], which “Relative activity (%)” value is on record?
A: Its value is 97%.

Q: Which “Relative activity (%)” value does the source give for `[Cl][Sn][Cl]` [SnCl2] here?
A: The value was 77%.

Q: For `O=S(=O)([O-])[O-].[Zn+2]` [ZnSO4], which “Relative activity (%)” value is on record?
A: The value was 97%.

Q: Which “Relative activity (%)” value does the source give for `O=C(O)c1cc[c]([Hg][Cl])cc1` [p-CMB] here?
A: Its value is 88%.

tested on: not given; experiment: not given; assay type: physicochemical, Candida magnoliae IFO 0705; conditions: 0.5 h, pH 7
Experimental: The expression that an enzyme is “stable” as used herein means that after being processed at pH 7.0 at 40° C. for 30 minutes the enzyme sustains an activity of 90% or more of that before the processing.
After the enzyme according to the present invention was treated at pH 7.0at 40° C. for 30 minutes, the activity of the enzyme was measured using ethyl 4-chloroacetoacetate as a substrate. As a result, the activity of 90% of that before the treatment remained.

Q: Which “heat stability: activity remaining relative to before the treatment” value does the source give for B1 here?
A: Its value is 90%.

tested on: CRD enzyme; experiment: Organic solvent resistance of the CRD enzyme; assay type: biochemical, Candida magnoliae IFO 0705; conditions: equivalent amount of solvent added to phosphate buffer (pH 7.0), shaken at 28° C. for 30 minutes

Q: With `CCCCOC(C)=O` [butyl acetate] as the molecule, how does the “residual activity of the enzyme in the aqueous phase” value read?
A: The value was 85%.

Q: For `CCOC(C)=O` [ethyl acetate], which “residual activity of the enzyme in the aqueous phase” value is on record?
A: The value was 72%.
